# According to patent publication US20250311727A1, “SUBSTITUTED 2-AMINOAZINES AND SALTS THEREOF, AND USE THEREOF AS HERBICIDAL ACTIVE SUBSTANCES” (BAYER AKTIENGESELLSCHAFT, priority 2022, published 2025):
# Legend:
# Format in all cases: in vivo
# Amaranthus retroflexus [1] = assay: Pre-emergence herbicide efficacy at 320 g/ha, AMARE; conditions: scored visually after about 3 weeks vs untreated controls, 100% = plants have died
# Summary of the method: (§1)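 Compound formulated as wettable powder or emulsion concentrate is applied onto covered, sown sandy loam soil with 0.5% additive. Plants grow under greenhouse conditions, and after roughly 3 weeks weed control is rated by eye as a percentage relative to untreated pots.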
# Viola tricolor [2] = assay: Post-emergence herbicidal efficacy at 80 g/ha, VIOTR; conditions: rated visually after about 3 weeks vs untreated controls, 100% = plants have died
# From the text: (§2) Unwanted plants/weeds: • ABUTH: Abutilon theophrasti • ALOMY: Alopecurus myosuroides • AMARE: Amaranthus retroflexus • DIGSA: Digitaria sanguinalis • ECHCG: Echinochloa crus-galli • KCHSC: Kochia scoparia • LOLRI: Lolium rigidum • MATIN: Matricaria inodora • POAAN: Poa annua • POLCO: Polygonum convolvulus • SETVI: Setaria viridis • STEME: Stellaria media • VERPE: Veronica persica • VIOTR: Viola tricolor A. Post-Emergence Herbicidal Efficacy at 320 g/ha
# (§3) Seeds of monocotyledonous and dicotyledonous weeds and crop plants were placed in sandy loam in plastic or organic planting pots, covered with soil and cultivated in a greenhouse under controlled growth conditions. 2 to 3 weeks after sowing, the test plants were treated at the one-leaf stage. The compounds of the invention, formulated in the form of wettable powders (WP) or as emulsion concentrates (EC), were then sprayed onto the green parts of the plants as aqueous suspension or emulsion with addition of 0.5% additive at a water application rate of 600 l/ha (converted). After the test plants had been kept in the greenhouse under optimum growth conditions for about 3 weeks, the activity of the preparations was rated visually in comparison to untreated controls. For example, 100% activity=the plants have died, 0% activity=like control plants.
# (§4) Tables B1 to B11 below show the effects of selected compounds of the general formula (I) according to Table 1 on various harmful plants and an application rate corresponding to 80 g/ha, which were obtained by the experimental procedure mentioned above.
# Setaria viridis [3] = assay: Pre-emergence herbicide efficacy at 320 g/ha, SETVI; conditions: scored visually after about 3 weeks vs untreated controls, 100% = plants have died
# Summary of the method: as §1
# Stellaria media [4] = assay: Pre-emergence herbicide efficacy at 320 g/ha, STEME; conditions: scored visually after about 3 weeks vs untreated controls, 100% = plants have died
# Summary of the method: as §1
# Abutilon theophrasti [5] = assay: Post-emergence herbicidal efficacy at 80 g/ha, ABUTH; conditions: rated visually after about 3 weeks vs untreated controls, 100% = plants have died
# From the text: as §2, §3, §4
# Alopecurus myosuroides [6] = assay: Post-emergence herbicidal efficacy at 80 g/ha, ALOMY; conditions: rated visually after about 3 weeks vs untreated controls, 100% = plants have died
# From the text: as §2, §3, §4
# Digitaria sanguinalis [7] = assay: Pre-emergence herbicide efficacy at 80 g/ha, DIGSA; conditions: scored visually after about 3 weeks vs untreated controls, 100% = plants have died
# From the text: as §2
# (§5) Seeds of monocotyledonous and dicotyledonous weed plants and crop plants were placed in plastic or organic planting pots and covered with soil. The compounds of the invention, formulated in the form of wettable powders (WP) or as emulsion concentrates (EC), were then applied to the surface of the covering soil as aqueous suspension or emulsion with addition of 0.5% additive at a water application rate equivalent to 600 l/ha. After the treatment, the pots were placed in a greenhouse and kept under good growth conditions for the test plants. After about 3 weeks, the efficacy of the preparations was scored visually in comparison with untreated controls as percentages. For example, 100% activity=the plants have died, 0% activity=like control plants.
# (§6) Tables D1 to D12 below show the effects of selected compounds of the general formula (I) according to Table 1 on various harmful plants and an application rate corresponding to 80 g/ha, which were obtained by the experimental procedure mentioned above.
# Poa annua = assay: Pre-emergence herbicide efficacy at 320 g/ha, POAAN; conditions: scored visually after about 3 weeks vs untreated controls, 100% = plants have died
# From the text: as §2
# (§7) Seeds of mono- and dicotyledonous weed plants were placed in plastic pots in sandy loam soil (doubly sown with one species each of mono- or dicotyledonous weed plants per pot) and covered with soil. The compounds of the invention, formulated in the form of wettable powders (WP) or as emulsion concentrates (EC), were then applied to the surface of the covering soil as aqueous suspension or emulsion with addition of 0.5% additive at a water application rate of 600 litres per hectare (converted). After the treatment, the pots were placed in a greenhouse and kept under good growth conditions for the test plants. After about 3 weeks, the efficacy of the preparations was scored visually in comparison with untreated controls as percentages.
# (§8) For example, 100% activity=the plants have died, 0% activity=like control plants.
# (§9) Tables C1 to C12 below show the effects of selected compounds of the general formula (I) according to Table 1 on various harmful plants and at an application rate corresponding to 320 g/ha, which were obtained by the trial procedure specified above.
# Stellaria media [8] = assay: Post-emergence herbicidal efficacy at 320 g/ha, STEME; conditions: rated visually after about 3 weeks vs untreated controls, 100% = plants have died
# Summary of the method: (§10)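 Effects are visual ratings taken about three weeks after foliar application, scaled from 0% (as untreated control) to 100% (plants died). Application was at the one-leaf stage in greenhouse-grown pots.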
# Alopecurus myosuroides [9] = assay: Pre-emergence herbicide efficacy at 320 g/ha, ALOMY; conditions: scored visually after about 3 weeks vs untreated controls, 100% = plants have died
# From the text: as §2, §7, §8, §9
# Veronica persica [10] = assay: Pre-emergence herbicide efficacy at 320 g/ha, VERPE; conditions: scored visually after about 3 weeks vs untreated controls, 100% = plants have died
# Summary of the method: as §1
# Abutilon theophrasti [11] = assay: Pre-emergence herbicide efficacy at 320 g/ha, ABUTH; conditions: scored visually after about 3 weeks vs untreated controls, 100% = plants have died
# From the text: as §2, §7, §8, §9
# Kochia scoparia [12] = assay: Post-emergence herbicidal efficacy at 320 g/ha, KCHSC; conditions: rated visually after about 3 weeks vs untreated controls, 100% = plants have died
# Summary of the method: as §10
# Digitaria sanguinalis [13] = assay: Pre-emergence herbicide efficacy at 320 g/ha, DIGSA; conditions: scored visually after about 3 weeks vs untreated controls, 100% = plants have died
# Summary of the method: as §1
# Polygonum convolvulus = assay: Pre-emergence herbicide efficacy at 80 g/ha, POLCO; conditions: scored visually after about 3 weeks vs untreated controls, 100% = plants have died
# From the text: as §2, §5, §6
# Setaria viridis [14] = assay: Post-emergence herbicidal efficacy at 320 g/ha, SETVI; conditions: rated visually after about 3 weeks vs untreated controls, 100% = plants have died
# From the text: as §2
# (§11) Seeds of mono- and dicotyledonous weed plants were placed in plastic pots in sandy loam soil (doubly sown with in each case one species of mono- or dicotyledonous weed plants per pot), covered with soil and cultivated in a greenhouse under controlled growth conditions. 2 to 3 weeks after sowing, the test plants were treated at the one-leaf stage. The compounds of the invention, formulated in the form of wettable powders (WP) or as emulsion concentrates (EC), were applied to the green parts of the plants as aqueous suspension or emulsion with addition of 0.5% additive at a water application rate equivalent to 600 litres per hectare. After the test plants had been kept in the greenhouse under optimum growth conditions for about 3 weeks, the activity of the preparations was rated visually in comparison to untreated controls.
# as §8
# (§12) Tables A1 to A10 below show the effects of selected compounds of the general formula (I) according to Table 1 on various harmful plants and at an application rate corresponding to 320 g/ha, which were obtained by the trial procedure specified above.
# Setaria viridis [15] = assay: Pre-emergence herbicide efficacy at 80 g/ha, SETVI
# From the text: as §2, §5, §6
# Abutilon theophrasti [16] = assay: Post-emergence herbicidal efficacy at 320 g/ha, ABUTH; conditions: rated visually after about 3 weeks vs untreated controls, 100% = plants have died
# Summary of the method: as §10
# Echinochloa crus-galli [17] = assay: Pre-emergence herbicide efficacy at 320 g/ha, ECHCG; conditions: scored visually after about 3 weeks vs untreated controls, 100% = plants have died
# From the text: as §2, §7, §8, §9
# Amaranthus retroflexus [18] = assay: Post-emergence herbicidal efficacy at 80 g/ha, AMARE; conditions: rated visually after about 3 weeks vs untreated controls, 100% = plants have died
# Summary of the method: (§13)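 Post-emergence greenhouse test: one-leaf weeds sprayed with formulated compound (0.5% additive, 600 l/ha), visually rated about 3 weeks later against untreated controls.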
# Kochia scoparia [19] = assay: Pre-emergence herbicide efficacy at 320 g/ha, KCHSC; conditions: scored visually after about 3 weeks vs untreated controls, 100% = plants have died
# Summary of the method: as §1
# Alopecurus myosuroides [20] = assay: Post-emergence herbicidal efficacy at 320 g/ha, ALOMY; conditions: rated visually after about 3 weeks vs untreated controls, 100% = plants have died
# From the text: as §2, §11, §8, §12
# Amaranthus retroflexus [21] = assay: Pre-emergence herbicide efficacy at 80 g/ha, AMARE; conditions: scored visually after about 3 weeks vs untreated controls, 100% = plants have died
# From the text: as §2, §5, §6
# Echinochloa crus-galli [22] = assay: Post-emergence herbicidal efficacy at 320 g/ha, ECHCG; conditions: rated visually after about 3 weeks vs untreated controls, 100% = plants have died
# From the text: as §2, §11, §8, §12
# Amaranthus retroflexus [23] = assay: Post-emergence herbicidal efficacy at 320 g/ha, AMARE; conditions: rated visually after about 3 weeks vs untreated controls, 100% = plants have died
# Summary of the method: as §10
# Viola tricolor [24] = assay: Pre-emergence herbicide efficacy at 80 g/ha, VIOTR
# From the text: as §2, §5, §6
# Veronica persica [25] = assay: Post-emergence herbicidal efficacy at 320 g/ha, VERPE; conditions: rated visually after about 3 weeks vs untreated controls, 100% = plants have died
# Summary of the method: as §10
# Veronica persica [26] = assay: Post-emergence herbicidal efficacy at 80 g/ha, VERPE; conditions: rated visually after about 3 weeks vs untreated controls, 100% = plants have died
# Summary of the method: as §13
compound,measurement,setting,value
Cc1cnc(Nc2cccc(F)c2-c2cc(C(F)F)no2)nc1 [Example 1-36],Pre-emergence efficacy at 320 g/ha against AMARE in %,Amaranthus retroflexus [1],100%
same,Post-emergence efficacy at 80 g/ha against VIOTR in %,Viola tricolor [2],100%
same,Pre-emergence efficacy at 320 g/ha against SETVI in %,Setaria viridis [3],100%
same,Pre-emergence efficacy at 320 g/ha against STEME in %,Stellaria media [4],100%
same,Post-emergence efficacy at 80 g/ha against ABUTH in %,Abutilon theophrasti [5],100%
same,Post-emergence efficacy at 80 g/ha against ALOMY in %,Alopecurus myosuroides [6],80%
same,Pre-emergence efficacy at 80 g/ha against DIGSA in %,Digitaria sanguinalis [7],90%
same,Pre-emergence efficacy at 320 g/ha against POAAN in %,Poa annua,100%
same,Post-emergence efficacy at 320 g/ha against STEME in %,Stellaria media [8],100%
same,Pre-emergence efficacy at 320 g/ha against ALOMY in %,Alopecurus myosuroides [9],100%
same,Pre-emergence efficacy at 320 g/ha against VERPE in %,Veronica persica [10],100%
same,Pre-emergence efficacy at 320 g/ha against ABUTH in %,Abutilon theophrasti [11],100%
same,Post-emergence efficacy at 320 g/ha against KCHSC in %,Kochia scoparia [12],100%
same,Pre-emergence efficacy at 320 g/ha against DIGSA in %,Digitaria sanguinalis [13],100%
same,Pre-emergence efficacy at 80 g/ha against POLCO in %,Polygonum convolvulus,90%
same,Post-emergence efficacy at 320 g/ha against SETVI in %,Setaria viridis [14],100%
same,Pre-emergence efficacy against SETVI,Setaria viridis [15],90%
same,Post-emergence efficacy at 320 g/ha against ABUTH in %,Abutilon theophrasti [16],100%
same,Pre-emergence efficacy at 320 g/ha against ECHCG in %,Echinochloa crus-galli [17],100%
same,Post-emergence efficacy at 80 g/ha against AMARE in %,Amaranthus retroflexus [18],90%
same,Pre-emergence efficacy at 320 g/ha against KCHSC in %,Kochia scoparia [19],100%
same,Post-emergence efficacy at 320 g/ha against ALOMY in %,Alopecurus myosuroides [20],100%
same,Pre-emergence efficacy at 80 g/ha against AMARE in %,Amaranthus retroflexus [21],90%
same,Post-emergence efficacy at 320 g/ha against ECHCG in %,Echinochloa crus-galli [22],100%
same,Post-emergence efficacy at 320 g/ha against AMARE in %,Amaranthus retroflexus [23],100%
same,Pre-emergence efficacy against VIOTR,Viola tricolor [24],80%
same,Post-emergence efficacy at 320 g/ha against VERPE in %,Veronica persica [25],100%
same,Post-emergence efficacy at 80 g/ha against VERPE in %,Veronica persica [26],80%
